Measurements published in patent US12070452B2, “Compounds targeting HSP110 protein for cancer treatment” (INSERM (Institut National de la Santé et de la Recherche …, priority 2018, dated 2024).

Legend:
[1] = tested on: tumor-infiltrating macrophages; test: Macrophage M1/M2-like markers in tumor slides, NOD/SCID HCT116 xenograft model; type: in vivo, mouse
Description: Statistical analysis has been performed by ANOVA (***=p=0.0019). FIG. 9B: M2-like markers pSTAT6 and ALOX15 were determined in tumor slides from NOD mice bearing HCT116 xenografts, treated or not with the compound 33 (related to formula (II)). Statistical analysis has been performed by ANOVA (***: p=0.0481). […] Anti-p-STAT1 (1/200; polyclonal, Cell Signaling), anti-SOCS1 (Suppressor of Cytokine Signaling protein 1, 1/200; polyclonal, Santa Cruz), and anti-NOS2 (Nitric Oxide Synthase 2, 1/200; polyclonal Santa Cruz) antibodies were used for M1-like macrophage markers. Anti-pSTAT6 (1/200; polyclonal Santa Cruz), anti-arginase-1 (1/200; polyclonal Santa Cruz) and anti-ALOX15 (Arachidonate 15-LipOXygenase, 1/200; monoclonal Santa Cruz) antibodies were used for M2-like macrophage markers. Primary antibodies were detected using Alexa fluor 488 or Alexa fluor 568-coupled secondary antibodies (1/500, Invitrogen). Nuclei were stained with 10 μl of ProLong Gold Antifade Mountant with DAPI (Molecular Probes). The same protocol was used for NOD/SCID mice except that mice were killed after 16 days after HCT116 cells injection. For the Balb/c model, mice were sacrificed at day 62 (day 1 being the first day of treatment). […] Especially the pSTAT1 relative expression measured is about 1.5 for compound 33 compared to 1.0 for the control, the NOS2 relative expression measured is about 1 for compound 33 compared to 2.5 for the control (FIG. 8A) in CT-26-Balb/c mice model. The pSTAT1 relative expression measured is about 1.5 for compound 33 compared to 0 for the control and the NOS2 relative expression measured is about 20 for compound 33 compared to 2 for the control (FIG. 8B) in NOD/SCID mice model.

[2] = tested on: tumor-infiltrating macrophages; test: Macrophage M1/M2-like markers in tumor slides, CT-26-Balb/c model; type: in vivo, mouse
Description: FIG. 8A: Pro-inflammatory M1-like macrophage markers pSTAT1 and NOS2 determined in tumor slides from CT-26-Balb/c mice model. Animals were treated or not every 3 days with the compound 33 (5 mg/Kg) Statistical analysis has been performed by ANOVA (***=p=0.0051). […] FIG. 9A: Anti-inflammatory macrophage M2-like markers Arg1 and pSTAT6 determined in tumor slides from CT-26-Ballb/c mice model. Animals were treated or not every 3 days with the compound 33 (5 mg/Kg). Statistical analysis has been performed by ANOVA (***=p=0.0031). […] Anti-p-STAT1 (1/200; polyclonal, Cell Signaling), anti-SOCS1 (Suppressor of Cytokine Signaling protein 1, 1/200; polyclonal, Santa Cruz), and anti-NOS2 (Nitric Oxide Synthase 2, 1/200; polyclonal Santa Cruz) antibodies were used for M1-like macrophage markers. Anti-pSTAT6 (1/200; polyclonal Santa Cruz), anti-arginase-1 (1/200; polyclonal Santa Cruz) and anti-ALOX15 (Arachidonate 15-LipOXygenase, 1/200; monoclonal Santa Cruz) antibodies were used for M2-like macrophage markers. Primary antibodies were detected using Alexa fluor 488 or Alexa fluor 568-coupled secondary antibodies (1/500, Invitrogen). Nuclei were stained with 10 μl of ProLong Gold Antifade Mountant with DAPI (Molecular Probes). The same protocol was used for NOD/SCID mice except that mice were killed after 16 days after HCT116 cells injection. For the Balb/c model, mice were sacrificed at day […] (day 1 being the first day of treatment). […] Especially the pSTAT1 relative expression measured is about 1.5 for compound 33 compared to 1.0 for the control, the NOS2 relative expression measured is about 1 for compound 33 compared to 2.5 for the control (FIG. 8A) in CT-26-Balb/c mice model. The pSTAT1 relative expression measured is about 1.5 for compound 33 compared to 0 for the control and the NOS2 relative expression measured is about 20 for compound 33 compared to 2 for the control (FIG. 8B) in NOD/SCID mice model.

[3] = Body and spleen weights of mice during treatment; type: in vivo; details: immunodeficient mice, 10 or 20 mg/kg intraperitoneally
Description: FIG. 11C: Body weight monitoring of Immunodeficient mice treated intraperitoneally with the compound 52 (=inhibitor 52) at 10 or 20 mg/kg or with vehicle at the same frequency. (Abscissa: Days from 0 to 20 in day; Ordinate: Body weight in g from 24 to 34 g (scale 2)).
FIG. 11D: Spleen weights monitoring of Immunodeficient mice treated intraperitoneally with the compound 52 (=inhibitor 52) at 10 or 20 mg/kg or with vehicle at the same frequency. (Abscissa: Treatments vehicle, 10 mg/kg or 20 mg/kg of compound 52; Ordinate: Spleen weight in mg from 20 to 100 mg (scale 20)).

[4] = NOD/SCID HCT116 model, control 1
[5] = CT-26-Balb/c model, control 1.0

| Compound | SOCS1 expression (M1 marker) ([1]; NOD/SCID (xenograft) model) | pSTAT1 relative expression (M1 marker) ([1]; NOD/SCID HCT116 model, control 0) | ALOX15 relative expression (M2 marker) [1, 4] | pSTAT6 relative expression (M2 marker) [1, 4] | NOS2 relative expression (M1 marker) ([1]; NOD/SCID HCT116 model, control 2) | SOCS1 expression (M1 marker) ([2]; Balb/c (syngeneic) model) | pSTAT1 relative expression (M1 marker) ([2]; CT-26-Balb/c model, 5 mg/Kg, control 1.0) | NOS2 relative expression (M1 marker) ([2]; CT-26-Balb/c model, 5 mg/Kg, control 2.5 as printed) | Arg1 relative expression (M2 marker) [2, 5] | pSTAT6 relative expression (M2 marker) [2, 5] | toxicity (body and spleen weights) [3] |
| --- | --- | --- | --- | --- | --- | --- | --- | --- | --- | --- | --- |
| COc1ccc(-c2ncc(-c3ncc(-c4cc(OC)c(OC)c(OC)c4)cc3/C=C/c3ccccc3)cc2C)cc1OC [compound 33, (E)-6′-(3,4-Dimethoxyphenyl)-5′-methyl-3-styryl-5-(3,4,5-trimethoxyphenyl)-2,3′-bipyridine] | increase | about 1.5 | about 0 | about 0 | about 20 | increase | about 1.5 | about 1 | about 0.5 | about 0.5 |  |
| COc1cc(-c2cnc(-c3cnc(-c4cc(OC)c(OC)c(OC)c4)c(C)c3)c(/C=C/c3ccccc3)c2)cc(OC)c1OC [compound 52, (E)-5′-Methyl-3-styryl-5,6′-bis(3,4,5-trimethoxyphenyl)-2,3′-bipyridine] |  |  |  |  |  |  |  |  |  |  | no toxicity |
